From patent publication US8470862B2, “Treatment or prevention of hypotension and shock” (Recro Pharma, Inc., priority 1999, dated 2013)

Test system: anaesthetized rats
Assay: Blood pressure and heart rate after slow intravenous administration in anaesthetized rats
Type: in vivo
Conditions: for HR (beats/min) / MAP (mmHg): mean ± SEM, n=6; for maximal change in HR / maximal change in MAP: percent change from baseline
Description: The effects of 3-(1H-imidazol-4-ylmethyl)-indan-5-ol on blood pressure and heart rate after slow intravenous administration were studied in anaesthetized rats. Dexmedetomidine (Orion Corporation Orion Pharma, Finland), a specific α2-adrenoceptor agonist was studied as a reference compound.
Male Spraque-Dawley rats (B&K, Sweden), weighing 290-400 g, were anaesthetized with sodium pentobarbital (Mebunat® 60 mg/ml) 75 mg/kg i.p. The left femoral vein was cannulated (PE-50) for slow drug injections. The left femoral artery was cannulated (PE-60) and the mean arterial blood pressure (MAP) and heart rate (HR) were recorded continuously via a Micro MP-15 transducer connected to a Grass Model 7D Polygraph. Arterial pressure was sampled at a rate 150 samples/second and recorded on a Pinus PC computer using the software program AcqKnowledge version 3.5.3 and a MP100A data acquisition unit for analog/digital conversion (BIOPAC Systems, Inc.). Pulse waves of the blood pressure were used for displaying heart rate continuously. The body temperature (rectal) was kept constant at 37±0.5° C. by warming with a lamp above the animal's chest. Only rats with MAP of 73 mmHg or higher were used for the tests. After a stabilizing period of 10-20 min, 3-(1H-imidazol-4-ylmethyl)-indan-5-ol (1 and 3 μg/kg, as hydrochloride) or dexmedetomidine (3 and 10 μg/kg, as hydrochlorides) dose was given as slow intravenous injection (during 5 min) by an infusion pump (Perfusor® ED 2, B. Braun). The total injection volume was adjusted to 1 ml in each experimental group.

[1] = dose 1 μg/kg slow i.v. (during 5 min), time 0 min
[2] = dose 1 μg/kg slow i.v. (during 5 min), time 3 min
[3] = dose 1 μg/kg slow i.v. (during 5 min), time 5 min
[4] = dose 1 μg/kg slow i.v. (during 5 min), time 10 min
[5] = dose 1 μg/kg slow i.v. (during 5 min), time 20 min
[6] = dose 1 μg/kg slow i.v. (during 5 min), time 30 min
[7] = dose 3 μg/kg slow i.v. (during 5 min), time 0 min
[8] = dose 3 μg/kg slow i.v. (during 5 min), time 3 min
[9] = dose 3 μg/kg slow i.v. (during 5 min), time 5 min
[10] = dose 3 μg/kg slow i.v. (during 5 min), time 10 min
[11] = dose 3 μg/kg slow i.v. (during 5 min), time 20 min
[12] = dose 3 μg/kg slow i.v. (during 5 min), time 30 min
[13] = slow (during 5 minutes) i.v. dosing of 1 and 3 μg/kg
[14] = dose 10 μg/kg slow i.v. (during 5 min), time 0 min
[15] = dose 10 μg/kg slow i.v. (during 5 min), time 2 min
[16] = dose 10 μg/kg slow i.v. (during 5 min), time 5 min
[17] = dose 10 μg/kg slow i.v. (during 5 min), time 10 min
[18] = dose 10 μg/kg slow i.v. (during 5 min), time 20 min
[19] = dose 10 μg/kg slow i.v. (during 5 min), time 30 min
[20] = slow intravenous administration of 3 and 10 μg/kg

Q: Which “HR (beats/min)” value [1] does the source give for Oc1ccc2c(c1)C(Cc1c[nH]cn1)CC2 (stereo not shown) [MPV-2426 Al, 3-(1H-imidazol-4-ylmethyl)-indan-5-ol] here?
A: Its value is 373 ± 8 beats/min.

Q: What about the “MAP (mmHg)” value [1] of the same molecule?
A: The value was 97 ± 4 mmHg.

Q: What about the “HR (beats/min)” value [2] of the same molecule?
A: The value was 324 ± 9 beats/min.

Q: And the “MAP (mmHg)” value [2]?
A: The value was 114 ± 3 mmHg.

Q: And the “HR (beats/min)” value [3]?
A: Its value is 321 ± 9 beats/min.

Q: And the “MAP (mmHg)” value [3]?
A: Its value is 112 ± 3 mmHg.

Q: And the “HR (beats/min)” value [4]?
A: The value was 327 ± 7 beats/min.

Q: And the “MAP (mmHg)” value [4]?
A: Its value is 83 ± 4 mmHg.

Q: And the “HR (beats/min)” value [5]?
A: The value was 319 ± 9 beats/min.

Q: What about the “MAP (mmHg)” value [5] of the same molecule?
A: The value was 84 ± 4 mmHg.

Q: And the “HR (beats/min)” value [6]?
A: Its value is 317 ± 9 beats/min.

Q: What about the “MAP (mmHg)” value [6] of the same molecule?
A: The value was 80 ± 3 mmHg.

Q: And the “HR (beats/min)” value [7]?
A: The value was 366 ± 11 beats/min.

Q: What about the “MAP (mmHg)” value [7] of the same molecule?
A: The value was 94 ± 5 mmHg.

Q: And the “HR (beats/min)” value [8]?
A: The value was 309 ± 7 beats/min.

Q: And the “MAP (mmHg)” value [8]?
A: The value was 123 ± 9 mmHg.

Q: What about the “HR (beats/min)” value [9] of the same molecule?
A: Its value is 311 ± 4 beats/min.

Q: And the “MAP (mmHg)” value [9]?
A: Its value is 117 ± 12 mmHg.

Q: What about the “HR (beats/min)” value [10] of the same molecule?
A: Its value is 321 ± 4 beats/min.

Q: And the “MAP (mmHg)” value [10]?
A: The value was 88 ± 4 mmHg.

Q: And the “HR (beats/min)” value [11]?
A: Its value is 321 ± 6 beats/min.

Q: And the “MAP (mmHg)” value [11]?
A: The value was 83 ± 5 mmHg.

Q: What about the “HR (beats/min)” value [12] of the same molecule?
A: The value was 305 ± 6 beats/min.

Q: And the “MAP (mmHg)” value [12]?
A: The value was 77 ± 3 mmHg.

Q: And the “maximal change in HR” value [13]?
A: Its value is −19%.

Q: What about the “maximal change in MAP” value [13] of the same molecule?
A: Its value is “+31%”.

Q: Cc1cccc([C@H](C)c2cnc[nH]2)c1C [Dexmedetomidine, dexmedetomidine] was tested. Which “HR (beats/min)” value [7] did it give?
A: Its value is 348 ± 12 beats/min.

Q: What about the “MAP (mmHg)” value [7] of the same molecule?
A: The value was 89 ± 5 mmHg.

Q: What about the “HR (beats/min)” value [8] of the same molecule?
A: Its value is 310 ± 6 beats/min.

Q: What about the “MAP (mmHg)” value [8] of the same molecule?
A: Its value is 86 ± 5 mmHg.

Q: And the “HR (beats/min)” value [9]?
A: The value was 310 ± 5 beats/min.

Q: What about the “MAP (mmHg)” value [9] of the same molecule?
A: The value was 79 ± 7 mmHg.

Q: What about the “HR (beats/min)” value [10] of the same molecule?
A: The value was 308 ± 4 beats/min.

Q: What about the “MAP (mmHg)” value [10] of the same molecule?
A: Its value is 61 ± 4 mmHg.

Q: What about the “HR (beats/min)” value [11] of the same molecule?
A: The value was 309 ± 5 beats/min.

Q: And the “MAP (mmHg)” value [11]?
A: The value was 65 ± 2 mmHg.

Q: What about the “HR (beats/min)” value [12] of the same molecule?
A: The value was 309 ± 5 beats/min.

Q: And the “MAP (mmHg)” value [12]?
A: Its value is 67 ± 2 mmHg.

Q: What about the “HR (beats/min)” value [14] of the same molecule?
A: The value was 383 ± 11 beats/min.

Q: What about the “MAP (mmHg)” value [14] of the same molecule?
A: The value was 92 ± 2 mmHg.

Q: And the “HR (beats/min)” value [15]?
A: The value was 308 ± 5 beats/min.

Q: What about the “MAP (mmHg)” value [15] of the same molecule?
A: The value was 94 ± 4 mmHg.

Q: What about the “HR (beats/min)” value [16] of the same molecule?
A: The value was 309 ± 3 beats/min.

Q: And the “MAP (mmHg)” value [16]?
A: The value was 75 ± 6 mmHg.

Q: What about the “HR (beats/min)” value [17] of the same molecule?
A: Its value is 303 ± 3 beats/min.

Q: And the “MAP (mmHg)” value [17]?
A: Its value is 59 ± 3 mmHg.

Q: What about the “HR (beats/min)” value [18] of the same molecule?
A: The value was 296 ± 7 beats/min.

Q: And the “MAP (mmHg)” value [18]?
A: Its value is 68 ± 2 mmHg.

Q: And the “HR (beats/min)” value [19]?
A: Its value is 297 ± 6 beats/min.

Q: What about the “MAP (mmHg)” value [19] of the same molecule?
A: The value was 73 ± 2 mmHg.

Q: And the “maximal change in HR” value [20]?
A: The value was −21%.

Q: And the “maximal change in MAP” value [20]?
A: Its value is −37%.
